Measured values reported in US20070167502A1, “Association between a heterocyclic compound and an antioxidant agent” (priority 2004, published 2007).

Tested on: Male C57 Black 6 ob/ob mice
Assay: Change in body weight of ob/ob mice after 7 days of treatment
Type: in vivo
Conditions: intraperitoneal route once a day for 7 days, weight after 7 days of treatment
Procedure: Male C57 Black 6 ob/ob mice from 8 to 12 weeks old were used. […] After being weighed, the various compounds under test were injected by the intraperitoneal route once a day for 7 days. The compounds were injected in a solution of DMSO 5%/Solutol 15%/qsp H2O heated at 65° C. to ensure good dissolution. In addition, the solution was pre-heated before injection. The mice were weighed every day and the weight obtained after 7 days of treatment was recorded.

CCOC(Cc1ccc(OCCn2c(=O)sc3cc(C(=NO)c4ccccc4)ccc32)cc1)C(=O)O (centres unmarked) [2-ethoxy-3-{4-[2-(6-[(hydroxyimino)(phenyl)methyl]-2-oxo-1,3-benzothiazol-3(2H)-yl)ethoxy]phenyl}propanoic acid]
reduction in the weight gain: 10%

COC1=C(OC)C(=O)C(C/C=C(\C)CC/C=C(\C)CC/C=C(\C)CC/C=C(\C)CC/C=C(\C)CC/C=C(\C)CC/C=C(\C)CC/C=C(\C)CC/C=C(\C)CCC=C(C)C)=C(C)C1=O [coenzyme Q10]
reduction in the weight gain: does not reduce the weight gain
